Measured values reported in patent publication US20070015733A1, “Aryl Phosphate Derivatives of d4T having Activity Against Resistant HIV Strains” (Parker Hughes Institute, priority 1998, published 2007).
Where two headings read alike, the source gives them in different places.

Experiments:
HIV-1 (strain: HTLVIIIB) = experiment: microbe, parasite or virus in culture; format: cell-based
Method: (§1) Percent inhibition of viral replication was calculated by comparing the p24 and RT activity values from the test substance-treated infected cells with those from untreated infected cells. In parallel, the cytotoxicity of the compounds was examined using a microculture tetrazolium assay (MTA) of cell proliferation, as described.in the Zarling, Enrice, and Uckun articles Supra).
(§2) Cellular Assays of Anti-HIV Activity and Cytotoxicity. […] Percent viral inhibition was calculated by comparing the RT activity values from the test substance-treated infected cells with RT values from untreated infected cells (i.e., virus controls).

[1] = system: HIV-1 (HTLVIIIB) in TK-deficient CEM T-cells; experiment: Inhibition of HIV-1 replication in TK-deficient CEM T-cells (p24 / RT activity); format: cell-based
Method: as §1, §2

in vitro = conditions: human
Method: as §1, §2

[2] = system: Zidovudine-Sensitive Primary Clinical HIV-1 Isolates; experiment: p24 drug susceptibility assay, zidovudine-sensitive primary clinical HIV-1 isolates in PBMC; format: cell-based; conditions: Human immunodeficiency virus 1, PBMC
Method: Antiviral susceptibility assays. Phenotypic drug susceptibility studies of HIV-1 isolates and strains were performed by measuring the production of the p24 gag protein in peripheral blood mononuclear cells (PBMC) from seronegative healthy volunteers in the presence of increasing concentrations of the anti-HIV agent using the quantitative Coulter HIV-1 p24 antigen ezyme immunoassay (EIA) and HIV-1 p24 Antigen Kinetic Standard (Beckman Coulter), as previously described (Uckun, 1998, Antimicrobial Agents and Chemotherapy 37(4): 835-38). Informed consent was obtained from the blood donors according to DHHS guidelines using consent forms approved by the Institutional Review Board. In brief, PBMC were cultured for 72 h in RPMI 1640 medium (Gibco) supplemented with 20% (vol/vol) heat-inactivated fetal bovine serum, 5% human interleukin-2 (Zeptometrix), 2 mM L-glutamine, 25 mM HEPES, 2 g/L NaHCO3, 100 U/ml penicillin/streptomycin (Gibco), 50 μg/ml gentamicin (Gibco), and 5 μg/ml phytohemagglutinin-P (PHA-P) (Sigma) for 24-72 hours prior to exposure to HIV at a multiplicity of infection of 0.001-0.1 during a 1-h adsorbtion period at 37±1° C. in a humidified 5-7% CO2 atmosphere. Subsequently, cells were cultured in 96-well microtiter plates (100 μl/well; 2×10^6 cells/ml, triplicate wells) in the presence of the anti-HIV agents at 6-7 different concentrations ranging from 0.0001 μM to 100 μM, and 25 μL aliquots of culture supernatants were removed from the wells on day 6 after infection for p24 EIA, as previously described (Uckun, 1998, Antimicrobial Agents and Chemotherapy, 37(4):835-38). Controls included uninfected and untreated cells (background control) and infected but untreated (virus control) cells. The p24 EIA utilizes a murine monoclonal antibody to HIV core protein used to coat microwell strips to which the antigen present in the test culture supernatant samples binds. Percent inhibition of viral replication was calculated by comparing the p24 values from the test substance-treated infected cells with p24 values from untreated infected cells (i.e., virus controls). The IC50 values were determined using the Statview statistics program (SAS Institute, Inc.). In parallel, the effects of various treatments on cell viability were also examined as previously described (Uckun, 1998, Antimicrobial Agents and Chemotherapy, 42:383-388). In brief, noninfected PBMC were treated with each compound for 5 days under identical experimental conditions. A microculture tetrazolium assay (MTA) was performed to quantitate cellular proliferation (Uckun, 1998, Antimicrobial Agents and Chemotherapy, 42:383-388).
Phenotypic drug susceptibility studies of HIV-1 isolates and strains were performed by measuring the production of the p24 gag protein in peripheral blood mononuclear cells (PBMC) from seronegative healthy volunteers in the presence of increasing concentrations of the anti-HIV agent using the quantitative Coulter HIV-1 p24 antigen enzyme immunoassay (EIA) and HIV-1 p24 Antigen Kinetic Standard (Beckman Coulter), as previously described. StatView was used in the calculation of the IC50 values from each set of triplicate wells using the linearized form of an exponential equation (lnY=lnb0+b1X; where Y=% inhibition, X=drug concentration). The inhibition constants were log10 transformed to homogenize the variances within each group. […] P-values below 0.05 were deemed significant (JMP Software, SAS).

[3] = system: HIV-1 A17 (Y181C mutant, NNRTI-resistant); experiment: p24 antigen assay, A17 strain in PBMC; format: cell-based; conditions: Human immunodeficiency virus 1, PBMC
Text: (§3) In vitro assays of anti-HIV-1 activity.
(§4) Viruses. 20 primary clinical isolates with genotypic and/or phenotypic NRTI-resistance (isolated in the laboratory of D. Richman) and 10 clinical isolates with phenotypic stavudine (d4T) resistance (obtained through the AIDS Research and Reference Reagent Program, NIAID) were used in the current study. The HIV-1 strains HTLVIIIB (wildtype RT, NRTI-sensitive, NNRTI-sensitive), A17 (Y181 C mutant, NNRTI-resistant), A17-variant (Y181C+K103N mutant, NNRTI-resistant), and RT-MDR (M41 L, V106N, T215Y; NRTI-resistant, NNRTI-resistant) were also obtained from the AIDS Research and Reference Reagent Program, NIAID.
(§5) Antiviral susceptibility assays.

[4] = system: HIV-1 A17-variant (Y181C+K103N mutant, NNRTI-resistant); experiment: p24 antigen assay, A17-variant strain in PBMC; format: cell-based; conditions: Human immunodeficiency virus 1, PBMC
Text: as §3, §4, §5

[5] = system: HIV-1 RT-MDR (NRTI-resistant, NNRTI-resistant); experiment: p24 antigen assay, RT-MDR strain; format: cell-based
[6] = Human immunodeficiency virus 1, PBMC, read-out: IC50 value for inhibition of RT activity, peripheral blood mononuclear cells
[7] = Human immunodeficiency virus 1, read-out: IC50 [RT], PBMNC, unit not printed in Table 2 (0.040 = 40 nM)
[8] = Human immunodeficiency virus 1, read-out: IC50 [p24], PBMNC, unit not printed in Table 2 (0.018 = 18 nM)
[9] = Human immunodeficiency virus 1, read-out: PBMNC IC50 [RT], PBMNC, unit not given in Table 5 (0.04 = 40 nM)
[10] = Human immunodeficiency virus 1, CCRF-CEM, TK-deficient CEM cells, read-out: IC50 value for inhibition of RT activity
[11] = Human immunodeficiency virus 1, CCRF-CEM, TK-deficient CEM cells, read-out: IC50 value for inhibition of p24 production
[12] = Human immunodeficiency virus 1, T-cell, TK-deficient CEM T-cells, Table 5, read-out: CEM IC50 [RT]
[13] = Human immunodeficiency virus 1, T-cell, TK-deficient CEM, unit not printed in Table 2 (0.556 = 556 nM), read-out: IC50 [p24]
[14] = Human immunodeficiency virus 1, T-cell, TK-deficient CEM, unit not printed in Table 2 (2.355 = 2355 nM), read-out: IC50 [RT]
[15] = read-out: IC50, μM (p24), Mean ± SE, mean over 10 zidovudine-sensitive clinical isolates
[16] = read-out: IC50, μM (p24), isolate 92BR003 (B/B, Brazil), PBMC
[17] = read-out: IC50, μM (p24), isolate 92BR025 (C/C, Brazil), PBMC
[18] = read-out: IC50, μM (p24), isolate 92RW008 (—/A, Rawanda), PBMC
[19] = read-out: IC50, μM (p24), isolate 92RW016 (subtype A/A, Rawanda), PBMC
[20] = read-out: IC50, μM (p24), isolate 93BR019 (—/BF, Brazil), PBMC
[21] = read-out: IC50, μM (p24), isolate 93BR020 (F/F, Brazil), PBMC
[22] = read-out: IC50, μM (p24), isolate 93BR029 (F/B, Brazil), PBMC
[23] = read-out: IC50, μM (p24), isolate 93IN101 (—/C, India), PBMC
[24] = read-out: IC50, μM (p24), isolate HIV-1G3 (—/G, Nigeria), PBMC
[25] = read-out: IC50, μM (p24), isolate HIV-1JV1083 (—/G, Nigeria), PBMC
[26] = read-out: IC50 range, range over 10 zidovudine-sensitive clinical isolates
[27] = Human immunodeficiency virus 1, MT2, laboratory strain RT-MDR (V106N), MT-2 cells, Table 14
[28] = Human immunodeficiency virus 1, RT-MDR(Con) control strain (M41L, L74V, T215Y, V106N)
[29] = Human immunodeficiency virus 1, read-out: IC50 RTMDR, p24
[30] = primary isolate RW/92/8 (V179I), Table 14

Compound | IC50 (HIV-1 (strain: HTLVIIIB); [6]) [nM] | IC50 (HIV-1 (strain: HTLVIIIB); [7]) [nM] | IC50 (HIV-1 (strain: HTLVIIIB); [8]) [nM] | IC50 (HIV-1 (strain: HTLVIIIB); [9]) [nM] | IC50 [1, 10] [nM] | IC50 [1, 11] [nM] | IC50 [1, 12] [nM] | IC50 [1, 13] [nM] | IC50 [1, 14] [nM] | IC50 [2, 15] [µM] | IC50 [2, 16] [µM] | IC50 [2, 17] [µM] | IC50 [2, 18] [µM] | IC50 [2, 19] [µM] | IC50 [2, 20] [µM] | IC50 [2, 21] [µM] | IC50 [2, 22] [µM] | IC50 [2, 23] [µM] | IC50 [2, 24] [µM] | IC50 [2, 25] [µM] | further results
Cc1cn([C@H]2C=C[C@@H](CO)O2)c(=O)[nH]c1=O [d4T, 2′,3′-didehydro-2′,3′-dideoxythymidine] | 40 | 40 | 18 | 40 | 2360 | 556 | 2400 | 556 | 2360 | 0.24 ± 0.07 | 0.1 | 0.4 | 0.2 | 0.1 | 0.2 | 0.2 | 0.8 | 0.1 | 0.1 | 0.2 | IC50 (HIV-1 (strain: HTLVIIIB); Human immunodeficiency virus 1, PBMC, read-out: IC50 value for inhibition of p24 production, peripheral blood mononuclear cells): 18 nM; IC50 (HIV-1 (strain: HTLVIIIB); Human immunodeficiency virus 1, read-out: PBMNC IC50 [RT], PBMNC, Table 4): 4 nM; IC50 ([1]; Human immunodeficiency virus 1, T-cell, read-out: CEM IC50 [RT], TK-deficient CEM T-cells, Table 4): 2340 nM; IC50 (in vitro; IC50 [MTA]): > 10000 nM; IC50 [2, 26]: 0.1 to 0.8 µM; IC90 ([2]; read-out: IC90 mean ±SE): 6380 ± 3890 nM; IC90 ([2]; read-out: IC90 range): 1000 to 40900 nM
COC(=O)C(C)NP(=O)(OC[C@@H]1C=C[C@H](n2cc(C)c(=O)[nH]c2=O)O1)Oc1ccc(Br)cc1 (stereo partly drawn) [Compound 1c, d4T-5′-[p-bromo-phenylmethoxyalaninyl phosphate]] | 42 | 42 | 22 | 40 | 57 | 44 | 60 | 44 | 57 | 0.002 ± 0.001 | 0.0006 | 0.001 | 0.0008 | 0.003 | 0.0008 | 0.007 | 0.0008 | 0.0005 | 0.0005 | 0.001 | IC50 (in vitro): > 10000 nM; IC50 [3]: < 1 nM; IC50 ([3]; read-out: IC50 A17): 36 ± 21 nM; IC50 [4]: < 1 nM; IC50 ([4]; read-out: IC50 A17V): 47 ± 27 nM; IC50 [5, 27]: < 1 nM; IC50 [5, 28]: < 1 nM; IC50 [5, 29]: 20 to 60 nM; IC50 ([5]; read-out: IC50 RTMDR, p24): 21 ± 12 nM; IC50 [2, 30]: 0.0008 µM
Cc1cn([C@H]2C[C@H](N=[N+]=[N-])[C@@H](CO)O2)c(=O)[nH]c1=O [AZT, 3′-azido-3′-deoxythymidine] |  |  |  |  | 200 |  | 200 |  |  | 0.004 ± 0.001 |  | 0.004 | 0.002 |  | 0.002 | 0.002 | 0.007 | 0.001 | 0.01 |  | IC50 (HIV-1 (strain: HTLVIIIB); Human immunodeficiency virus 1, PBMC, peripheral blood mononuclear cells, read-out: IC50 value for inhibition of RT activity): 3 nM; IC50 (HIV-1 (strain: HTLVIIIB); Human immunodeficiency virus 1, PBMNC, unit not given in Table 5 (0.04 = 40 nM), read-out: PBMNC IC50 [RT]): 3 nM; IC50 (in vitro; CEM IC50 [MTA]): > 10000 nM; IC50 ([3]; read-out: IC50 A17): 0.055 nM; IC50 ([4]; read-out: IC50 A17V): 0.005 nM; IC50 [5, 28]: > 10000 nM; IC50 [5, 29]: 68 nM; IC50 [2, 26]: 0.001 to 0.01 µM; IC90 ([2]; read-out: IC90 mean ±SE): 50 ± 10 nM; IC90 ([2]; read-out: IC90 range): 11 to 90 nM
Cc1ccnc2c1NC(=O)c1cccnc1N2C1CC1 [nevirapine] |  |  |  |  |  |  |  |  |  |  |  |  |  |  |  |  |  |  |  |  | IC50 [3]: 47000 ± 7000 nM; IC50 [4]: 32000 ± 7000 nM; IC50 [5, 27]: 18000 ± 8000 nM; IC50 [2, 30]: 0.1 µM
